{"source": "a melting point compilation (Tetko et al.; mined from patent text by program, amines drawn as free bases though some values may be those of a salt)"}
{"units": {"melting point": "°C"}}
{"smiles": "CC(C)COc1ccc2c(c1)c(=O)n(CCC(=O)O)c(=O)n2Cc1c[nH]c2ccccc12", "melting point": "199 to 201"}
{"smiles": "Cc1ccc(-c2c(NS(=O)(=O)c3ccc(C(C)(C)C)cc3)ncnc2OCCOc2ccc(NC(=O)C(C)(C)C)cn2)cc1", "melting point": "140 to 141"}
{"smiles": "CCCCCc1cnc(-c2ccc(C#N)cc2)nc1", "melting point": "69.4 to 70.8"}
{"smiles": "Nc1cc(Cl)cc(Cl)c1C(=O)NCC1CCCCC1", "melting point": "168 to 171"}
{"smiles": "N[C@@H](CCCCN=Cc1ccccc1)C(=O)O", "melting point": "79 to 81"}
{"smiles": "CCCNC(=S)c1ccc2c(c1)N(C(C)CN1CCCC1)c1ccccc1S2", "note": "(racemic)", "melting point": "150 to 152"}
{"smiles": "CC1=CC(=O)C(C(=O)C=Cc2cccs2)C(=O)O1", "note": "(centres undefined)", "melting point": "162 to 164"}
{"smiles": "COC(=O)CCCc1cc2nc(Cl)ccc2n1S(=O)(=O)c1ccc(-c2ccccn2)cc1", "melting point": "123 to 124"}
{"smiles": "O=Cc1c(Cl)c(Br)c(Br)c(Br)c1Br", "melting point": "268 to 269"}
{"smiles": "COc1nc2cc([N+](=O)[O-])c(C)c(C(=O)Nc3ccc(C)cc3)c2nc1OC", "melting point": "214 to 215"}
{"smiles": "O=C(O)CSC1CCCc2cc3c(cc21)OCO3", "note": "(centres undefined)", "melting point": "138 to 139"}
{"smiles": "COc1cc2c(cc1OC)S(=O)(=O)N(C)C(C(N)=O)C2", "note": "(centres undefined)", "melting point": "215 to 222"}
{"smiles": "O=C(Nc1ccc2cc(CN3CCCC3)cnc2c1)c1ccc(-c2ccc(Cl)cc2)cc1", "melting point": "217 to 220"}
{"smiles": "COC(=O)C(C)(C)OCc1cc2cc(C(F)(F)F)ccc2n1S(=O)(=O)c1cccc2nc(C)sc12", "melting point": "118 to 120"}
{"smiles": "CS(=O)(=O)Oc1ccc(-c2c3ccccc3cc3sc4ccccc4c23)cc1", "melting point": "136 to 139"}
{"smiles": "COc1cc(C(=O)c2ncc3ccccn23)ccc1[N+](=O)[O-]", "melting point": 183}
{"smiles": "CCOCCN(C)c1ccc(-c2ccc3c(c2)C=C(C(=O)Nc2ccc(CN(C)C4CCOCC4)cc2)CCS3(=O)=O)cc1", "melting point": "190 to 192"}
{"smiles": "CNCC(=O)NC(=O)N(CCCl)N=O", "melting point": "86 to 88"}
{"smiles": "COc1ccc(-c2[nH]c3ncnc(Nc4cccc(Cl)c4)c3c2C)cc1", "melting point": "265 to 268"}
{"smiles": "CCOc1nc(-c2ccc(NC(=O)NCc3cccnc3)cc2)ccc1C(=O)NC", "melting point": 200}
{"smiles": "CCCC(C)SC1NN=C(c2ccncc2)N1c1ccccc1", "note": "(centres undefined)", "melting point": "96 to 97"}
{"smiles": "COc1ccc(-c2nc(CCC(=O)O)oc2-c2ccccc2)cc1", "melting point": "118 to 120"}
{"smiles": "O=[N+]([O-])c1c(Cl)c(Cl)cc2c1OC(F)(F)O2", "melting point": "29 to 30"}
{"smiles": "CN1CCC(c2n[nH]c3ccc([N+](=O)[O-])cc23)CC1", "melting point": "237 to 239"}
{"smiles": "O=C(c1ccccc1)C(O)O", "melting point": "85 to 85.5"}
{"smiles": "COc1ccc(COC(=O)NCCc2c[nH]c3ccccc23)cc1", "melting point": "108 to 109"}
{"smiles": "NC(=O)C1=CCCc2cc(Sc3ccccc3)cc(F)c21", "melting point": "224 to 226"}
{"smiles": "CC(=O)Nc1nc2ccc(S(=O)(=O)n3c(CCCC(=O)O)cc4cc(C(F)(F)F)ccc43)cc2s1", "melting point": "> 250"}
{"smiles": "NC(=O)C1CCN(c2cc(-c3ccccc3)nc3ccc(F)cc23)CC1", "melting point": "230 to 233"}
{"smiles": "CCC(CC)(CO)CCS(N)(=O)=O", "melting point": "79 to 80"}
{"smiles": "CCOC(=O)c1cn(C2COC2)c2c(F)c(F)c(F)c(F)c2c1=O", "melting point": "110 to 113"}
{"smiles": "Cc1ccc(-c2cn3cc([N+](=O)[O-])ccc3n2)cc1", "melting point": "205 to 206"}
{"smiles": "COc1ccc(C(=C/C=C/C(=O)NCCCOc2cccnc2)c2ccc(OC)cc2)cc1", "melting point": "146 to 147"}
{"smiles": "CCNc1ccc(C2(C)C(=O)c3c(Cl)cc(Cl)cc3N(Cc3ccccc3)C2=O)cc1", "note": "(centres undefined)", "melting point": "148 to 149"}
{"smiles": "Cc1nc2c(n1Cc1ccccc1)CCCC2=O", "melting point": 115}
{"smiles": "Cc1cnnc2c1C(=O)CC(c1cc(Cl)sc1Cl)C2", "note": "(centres undefined)", "melting point": "137 to 138"}
{"smiles": "O=Cc1ccc(N2CCC3(CC2)OCCO3)c(Br)c1", "melting point": "63 to 64"}
{"smiles": "Cc1nc2cnccc2n1-c1ccc(Cn2c(=O)sc3ccccc32)cc1", "melting point": "198 to 201"}
{"smiles": "CCCCN1C(=O)NC(=Cc2ccc(C(=O)OC)cc2)C1=O", "melting point": 212}
{"smiles": "O=C(Nc1ccc2nc3[nH]c(=O)[nH]c3cc2c1)c1ccccc1", "melting point": "> 300"}
{"smiles": "CCOC(=O)C(C#N)=CNc1csc(-c2ccccc2)c1", "melting point": "190 to 193"}
{"smiles": "NC(=O)C(=O)NC(C(=O)OC(c1ccccc1)c1ccccc1)c1ccco1", "note": "(centres undefined)", "melting point": "168 to 170"}
{"smiles": "CSc1c2c3c(n1C)C(=O)C(=O)C(Cl)=C3NCC2", "melting point": 205}
{"smiles": "COc1cc(C2CCN(C(=O)CN)CC2)ccc1Nc1ncc2ccc(-c3ccccc3N(C)S(C)(=O)=O)n2n1", "melting point": "106 to 119"}
{"smiles": "Oc1ccc(Cl)nc1Cl", "melting point": "136 to 138"}
{"smiles": "CN1CCC(c2c(O)cc(O)c3c(=O)cc(-c4ccccc4O)oc23)C1CO", "note": "(centres undefined)", "melting point": "212 to 213"}
{"smiles": "O=c1[nH]c(=O)n(Cc2cccc(OCc3noc(-c4ccc(F)cc4)n3)c2)o1", "melting point": "147 to 148"}
{"smiles": "Cc1ncnc(-c2ccc(Oc3ccc([N+](=O)[O-])cc3)cc2)n1", "melting point": "148 to 149"}
{"smiles": "Oc1ccc2cc(Br)cc(F)c2c1", "melting point": "124 to 126"}
{"smiles": "COCc1cc2c(s1)CCCc1cc(=O)n(-c3ccc(C)cc3)nc1-2", "melting point": "109 to 110"}
{"smiles": "COc1cccc(Cc2nnc(SC)[nH]c2=O)c1", "melting point": "185 to 186"}
{"smiles": "O=C(OCC1OC(n2cnc3c(N(C(=O)c4ccccc4)C(=O)c4ccccc4)ncnc32)C(O)(C(=O)c2ccccc2)C1(O)C(=O)c1ccccc1)c1ccccc1", "note": "(centres undefined)", "melting point": "183 to 184"}
{"smiles": "Fc1ccc(Cn2c(NC3CCN(CCn4c(=S)[nH]c5ccccc54)CC3)nc3ccccc32)cc1", "melting point": 235}
{"smiles": "O=C(N1CCCC(c2cccc3[nH]ccc23)C1)C(F)(F)F", "note": "(centres undefined)", "melting point": 170}
{"smiles": "CC1(C)[C@H]2CC[C@@H](CC(=O)O)[C@@H]1C2", "melting point": "50 to 53"}
{"smiles": "CCOC(=O)C1=C(C)NC(SCc2ccc(OC)cc2)=NC1c1cccc([N+](=O)[O-])c1Cl", "note": "(centres undefined)", "melting point": "155 to 157"}
{"smiles": "COCc1cc(C)nc2c(OCc3ccccc3)cccc12", "melting point": "73.7 to 76.3"}
{"smiles": "CC(C)c1ccc(C(=O)C2=C(O)C(=O)N(c3ccc(OCc4ccccc4)nn3)C2c2ccc(OC(F)(F)F)cc2)cc1", "note": "(centres undefined)", "melting point": 269}
{"smiles": "N#CC(C#N)=C1c2ccsc2-c2c1cc([N+](=O)[O-])cc2[N+](=O)[O-]", "melting point": "244 to 246"}
{"smiles": "CC[C@@H]1O[C@](C#CC2CC2)(C(F)(F)F)c2c(ccc(F)c2F)NC1=O", "note": "(relative stereo)", "melting point": "180 to 181"}
{"smiles": "COc1cc2c(cc1Nc1ncc(Cl)c(N[C@@H]3CCCC[C@H]3NS(C)(=O)=O)n1)CCN(CCNC(C)=O)CC2", "melting point": "108 to 118"}
{"smiles": "COC(=O)c1c2nc3ccccc3c-2[nH]c2ccccc12", "melting point": "152 to 154"}
{"smiles": "COC1=C(OCCCCCc2ccccc2)C2OC2(C=O)C=C1", "note": "(centres undefined)", "melting point": "65 to 67"}
{"smiles": "O=C(c1ccc(Cl)cc1)c1cc(C2(Nc3ccccc3)OCCO2)ccn1", "melting point": "102 to 103"}
{"smiles": "CN(C)[C@@H]1Cc2cccc(O)c2C[C@H]1O", "note": "(relative stereo)", "melting point": "168 to 170"}
{"smiles": "Cc1noc(C2CN=CN(C(c3ccccc3)(c3ccccc3)c3ccccc3)C2)n1", "note": "(centres undefined)", "melting point": "72 to 74"}
{"smiles": "CNC(=O)c1ccc(C=CC(=O)O)cc1", "melting point": 273}
{"smiles": "N#Cc1ccc(-c2ccc(OCC(COc3ccccc3)N(O)C=O)cc2)cc1", "note": "(centres undefined)", "melting point": "133 to 135"}
{"smiles": "O=C1N(Cc2ccc(C(F)(F)F)o2)c2ccccc2C12COc1ccc(=O)[nH]c12", "note": "(centres undefined)", "melting point": "175 to 177"}
{"smiles": "CCOC(=O)C1N=c2sccc2=CN1N", "note": "(centres undefined)", "melting point": "138 to 140"}
{"smiles": "CCN(CC)C(=O)c1cc(-c2ccccc2)c(=O)n2c1-c1cc(Cl)ccc1CN2", "melting point": "192 to 194"}
{"smiles": "CCOC(=O)Nc1ccc(C2CCN(C(=O)OC(C)(C)C)CC2)cc1", "melting point": "126 to 128"}
{"smiles": "CCOC(=O)C(C#N)=Cc1c(Cl)n(C)c2ccccc12", "melting point": "131 to 132"}
{"smiles": "COC(=O)C=Cc1cnc(SC)nc1NCc1ccc(OC)c(Cl)c1", "melting point": "141 to 142"}
{"smiles": "COC(=O)/C(=C/c1cccc([N+](=O)[O-])c1)CC(=O)O", "melting point": "160 to 161"}
{"smiles": "NC1CC2=CNC=C3C=COCC1=C32", "note": "(centres undefined)", "melting point": "202 to 203"}
{"smiles": "CS(=O)(=O)c1ccc(-n2nc(CNC(=O)Nc3ccccc3)cc2-c2ccccc2)cc1", "melting point": "95.7 to 104"}
{"smiles": "CSc1nc(=O)n(-c2ccccc2F)c(=O)[nH]1", "melting point": "196 to 199"}
{"smiles": "COc1ccc(CNc2ccccc2C(=O)Nc2ccc(Br)c(C(F)(F)F)c2)cn1", "melting point": "101 to 103"}
{"smiles": "CC1CC2C3CC(F)C4=CC(=O)C=CC4(C)C34OC4CC2(C)C1(O)C(=O)CO", "note": "(centres undefined)", "melting point": "241 to 242"}
{"smiles": "COC(=O)c1ccc(Sc2ccc(O)cc2)cc1", "melting point": "184 to 186"}
{"smiles": "Nc1ncnc2c1c(-c1ccc(Oc3ccccc3)cc1)cn2CCCCCCCCN1C(=O)c2ccccc2C1=O", "melting point": "85 to 86"}
{"smiles": "CC(=O)c1cn(-c2c(Cl)cc(OC(F)(F)F)cc2Cl)nc1C#N", "melting point": "106 to 107"}
{"smiles": "O=CC1=C(c2ccc3sccc3c2)N2CCN=C2S1", "melting point": 146}
{"smiles": "Cn1c(OC2CCOC2)n[nH]c1=O", "note": "(centres undefined)", "melting point": 164}
{"smiles": "O=C1N=C(N2CCOCC2)SC1=Cc1ccccc1-c1ccc(O)c(C23CC4CC(CC(C4)C2)C3)c1", "melting point": "321 to 324"}
{"smiles": "OC(c1ccccc1)(c1ccccc1)C(F)(F)C(F)(F)F", "melting point": "82 to 83"}
{"smiles": "Nc1cccc(NC(=O)Nc2ccc(N(CCCl)CCCl)cc2)c1", "melting point": "182 to 183"}
{"smiles": "O=C1CC(c2sccc2Cl)=Nc2ccc(-c3ccc(F)cc3)cc2N1", "melting point": "255 to 256"}
{"smiles": "CC(C(=O)O)c1ccc2c(c1)C(c1ccccc1)=NCC(=O)N2", "note": "(centres undefined)", "melting point": "252 to 255"}
{"smiles": "CN1CCC(C(=O)Nc2ccc(CN(C)C3CCOCC3)cc2)=Cc2cc(-c3ccc(N4CCCCC4)cc3)ccc21", "melting point": "202 to 204"}
{"smiles": "COc1cc(OC)nc(N=C=S)n1", "melting point": "85 to 86"}
{"smiles": "Cc1cc(C#N)ccc1N1CCN(C(=O)OC(C)(C)C)CC1", "melting point": "127 to 131"}
{"smiles": "[N-]=[N+]=C1C(=O)Nc2cccc(Cl)c21", "melting point": "214 to 215"}
{"smiles": "CCOP(=O)(/C=C/c1cn(-c2ccccc2)nc1OCc1ccc(OCc2nc(N3CCCCC3)sc2C)c(OC)c1)OCC", "melting point": "95 to 96"}
{"smiles": "CC(=O)Nc1cccc2cc(S(=O)(=O)Nc3onc(C)c3C)ccc12", "melting point": "210 to 212"}
{"smiles": "O=C1Nc2ccc(-c3cccc(Cl)c3)cc2C1=O", "melting point": "159 to 161"}
{"smiles": "O=C1COCC2CCCN12", "note": "(centres undefined)", "melting point": "63.5 to 66"}
{"smiles": "Cc1ccc(-n2nc(C(C)(C)C)cc2NC(=O)Nc2ccc(OCCN3CCOCC3)c3ccccc23)cc1", "melting point": "142 to 143"}
